≈ marks a conversion by molar mass, not a printed value. Read-outs that look alike come from different tables or passages of the source.
Assays:
[1] = LogD measurement (octanol-water); type: physicochemical
Procedure: LogD Measurement: Measurement of octanol-water distribution coefficient of samples using a […]
stock solutions for plating. Aqueous Phase: 100mM Buffer, pH=7.4 (0.1M Potassium phosphate buffer, diluted from Sigma 1M P3619-1GA to 0.1 M with MilliQ water), pH=2.2 (0.1M- NaCl pH adjusted with 0.1N HCL), pH=6.8 (0.1M - KH2PO4/K2HPO4), pH=5 (4 .04g of NaOH (Pellets), 8.65g of Glacial Acetic Acid, 11.874g of NaCl. In in 1 liter water. Adjusted to pH to 5 with either 1N NaOH or 1N HCl); Organic Phase: 1-Octanol (O021). Sample Concentration:
1000uM, […] 10 mM DMSO stock solution diluted in […] of organic Phase and […] of aqueous Phase. DMSO content: 10%. The controls were plated from the standard 10 mM DMSO stock and run on the standard concentration ([…]) range of the assay. Incubation time:
Sonication for 30 minutes followed by 24 hours shaking at 750 rpm in 96 deep well plate (VWR

[2] = Liver S9 metabolic stability assay, rat; type: in vitro ADME; conditions: 3 μM, 60 min
Procedure: (§1) Liver S9 Metabolic Stability Assay: Incubations were performed at 37 °C in a Dubnoff Shaking water bath using 2 mL 96-well incubation plates. Rat and human S9 protein concentrations were 0.75 mg/ml and 1.2 mg/ml, respectively. The final concentrations of NADPH, UDPGA, and GSH were 1, 0.5, and 2.5 mM, and the final concentration of PAPS was 0.05 mg/ml. Substrate concentrations were 3µM, incubation time was 60 minutes, and all tests were done in triplicate. The incubation was conducted in 200 mM Tris buffer containing 2 mM magnesium chloride, pH=7.4 and the total incubation volume was 0.5 ml. Samples were analysed via LC-MS/MS and reported as percentage remaining after incubation for 60 minutes. […]

[3] = Liver S9 metabolic stability assay, human; type: in vitro ADME; conditions: 3 μM, 60 min
Procedure: as §1

[4] = test system: O. gutturosa adult male worms; assay: O. gutturosa adult worm ex vivo assay, motility; type: cell-based, Onchocerca gutturosa
Procedure: (§2) Activity against O. gutturosa adult male worms was determined using reported procedures.[7] The EC50 values were calculated using Microsoft Office Excel (2010) data analysis software. The tested compound is considered active when a motility reduction of ≥50% is observed by comparison to the untreated controls. O. gutturosa adult male worms were obtained postmortem from freshly slaughtered cattle. The worms were dissected from the nuchal ligament connective tissues of naturally infected cattle in Gambia, West Africa; the material was purchased from the International Trypanotolerance Centre, Banjul, from local butchers for use in this study. The adult worms were transferred individually to each well of a sterile 24-well (2 mL) plate (Thermo Fisher Scientific, UK) and maintained for at least 24 h in culture before use. The medium used was a minimum essential medium (MEM) with Earl’s salts and L-glutamine (Life Technologies Ltd., UK) supplemented with 10% heat inactivated newborn calf serum (Life Technologies Ltd., UK), 200 units/mL penicillin, 200 μg/mL streptomycin, and 0.5 μg/mL amphotericin B (Life Technologies Ltd., UK). Only normally active worms were used for the test, and all assays were conducted at 37 °C and 5% CO2. The positive control drug used was Immiticide (melarsomine dihydrochloride, Merial, USA). Known amounts of compounds were solubilized in 1 mL of DMSO. All stock solutions were allowed to stand at room temperature prior to use. The test items (four worms/drug concentration) were compared to untreated controls (six worms) and the positive control (two worms/drug concentration). Drug efficacy was assessed by the measurement of mean worm motility scores on a scale of 0 (immotile) to 10 (maximum) every 24 h, terminating at 120 h, using an Olympus inverted microscope. The results are reported as a percentage of the maximum score obtainable (100%) by calculating the motility index scores. The test drug is considered active when a motility reduction of ≥50% is observed by comparison to the untreated controls. […] In addition, biochemical evaluation of worm viability was assessed using MTT/formazan colorimetry. The MTT assay was carried out after the last motility reading (120 h). Single intact worms were placed in each well of a 48-well plate (Thermo Fisher Scientific, UK) containing 0.5 mL of 0.5 mg/mL MTT (Sigma, UK) in PBS solution and then incubated for 30 min at 37 °C. The worms were removed, blotted carefully, and individually transferred to separate wells of a 96-well microtiter plate, each containing 200 μL of DMSO to solubilize the formazan. After 1 h, the plate was gently agitated to disperse the color evenly and the absorbance value (optical density, OD) of the resulting formazan solution was determined at 490 nm using an absorbance microplate reader (Biotek ELx800, Thermo Fisher Scientific, UK). The results are expressed as the mean OD per drug concentration. Inhibition of formazan formation is correlated with worm damage or death.
Data S1. Onchocerca gutturosa adult male worms EC 50 Curves
Plotted using Graph Pad Prism 7.03, least square original fit, sigmoidal, 4PL
The measurement of mean worm motility every 24 h, terminating at 120 h, serial 1 in 4 drug dilutions to find
activity endpoint and produce EC50 values (geomean, n=2) for motility reduction. (4 worms per drug […]

[5] = test system: O. gutturosa adult male worms; assay: O. gutturosa adult worm ex vivo assay, MTT/formazan viability; type: cell-based, Onchocerca gutturosa; conditions: supplement, SD in brackets in the PDF table, read-out: O. gutturosa EC50 (uM) MTT viability inhibition
Procedure: as §2

[6] = Kinetic solubility measurement; type: physicochemical; conditions: 10 mM DMSO stock solutions
Procedure: Kinetic Solubility Measurement: The standard kinetic solubility assay runs on […] concentration range using 10 mM DMSO stock solutions for plating. Single point calibration assay runs in duplicates. Concentration of standards: […] DMSO solutions prepared by diluting 10 mM stock, solution with DMSO. Concentration of samples: 200 µM, 4 µl 10 mM DMSO stock solution diluted with the appropriate buffer to […]. DMSO content:
2%. Buffers: pH=7.4 (0.1M Potassium phosphate buffer, diluted from Sigma 1M P3619-1GA to 0.1 M with MilliQ water), pH=2.2 (0.1M- NaCl pH adjusted with 0.1N HCL), pH=6.8 (0.1M - KH2PO4/K2HPO4), pH=5 (4 .04g of NaOH (Pellets), 8.65g of Glacial Acetic Acid, 11.874g of NaCl. In in 1 liter water. Adjusted to pH to 5 with either 1N NaOH or 1N HCl). The controls were plated from the standard 10 mM DMSO stock and run on the standard concentration (200µM) range of the assay. Incubation time: 24 hours shaking at […] in Millipore Multiscreen HTS filter plate for Aqueous Solubility Assay (MSSLBPC50), on room temperature.
After incubation time filtration with positive pressure manifold was performed. […]

[7] = supplement, read-out: measured logD
[8] = Onchocerca gutturosa, read-out: O. gutturosa EC50 μM (SD), ex vivo adult worm motility reduction, SD in brackets
[9] = Onchocerca gutturosa, read-out: O. gutturosa EC50 (uM) motility inhibition, supplement, SD in brackets in the PDF table

Row | Compound | logD at 24 h ([1]; pH 7.4, read-out: logD) | logD at 24 h [1, 7] | Rat S9 metabolic stability [2] | Human S9 metabolic stability [3] | EC50 [4, 8] | EC50 [4, 9] | EC50 ([5]; Onchocerca gutturosa) | solubility kinetic at 24 h [6] | EC50 ([4]; read-out: O. gutturosa EC50 (uM) motility inhibition, supplement, SD in brackets in the PDF table) | EC50 [5] | logD ([1]; pH 7.4) | measured logD ([1]; supplement) | EC50 ([4]; adult worm motility, bound stated, read-out: O. gutturosa EC50) | EC50 ([4]; supplement, SD in brackets in the PDF table, read-out: O. gutturosa EC50 (uM) motility inhibition)
1 | CC(C)Oc1ccc(-c2nsc(Nc3cc(C(F)(F)F)c(C(C)C)cn3)n2)nc1 [Compound 37] | 2.8 | 2.8 | 100 % remaining | 100 % remaining | 0.05 µM | 0.053 µM | 0.3 µM | 1.00 µM (≈ 0.423 µg/mL) |  |  |  |  |  | 
2 | Cc1cccnc1N(c1nc(-c2ccc(OC(C)C)cn2)ns1)C(C)C [Compound 43, 3-(5-Isopropoxypyridin-2-yl)-N-isopropyl-N-(3-methylpyridin-2-yl)-1,2,4-thiadiazol-5-amine] | 3.1 | 3.1 | 60 % remaining | 79 % remaining | 3.3 µM |  | 3.4 µM | 118 µM (≈ 43.6 µg/mL) |  |  |  |  |  | 
3 | CC(C)Oc1ccc(-c2nsc(N(C)c3ncccc3C(C)C)n2)nc1 [Compound 44, 3-(5-Isopropoxypyridin-2-yl)-N-(3-isopropylpyridin-2-yl)-N-methyl-1,2,4-thiadiazol-5-amine] | 3 | 3 | 4 % remaining | 32 % remaining | 1.67 µM |  | 1.4 µM | 121 µM (≈ 44.7 µg/mL) |  |  |  |  |  | 
4 | Cc1cccnc1Nc1nc(-c2cc(C(=O)N(C)C)ccn2)ns1 [Compound 16] | 1.9 | 1.9 | 78 % remaining | 89 % remaining | 3.28 µM |  | 1.1 µM | 26.5 µM (≈ 9.02 µg/mL) |  |  |  |  |  | 
5 | CC(C)Oc1cc(-c2nsc(Nc3ncccc3N(C)C)n2)ncc1C(F)(F)F [Compound 33] | 3 | 3 | 8 % remaining | 100 % remaining | 0.85 µM | 0.852 µM | 0.83 µM | 1.43 µM (≈ 0.607 µg/mL) |  |  |  |  |  | 
6 | Cc1cccnc1N(C)c1nc(-c2ccc(OC(C)C)cn2)ns1 [Compound 42, 3-(5-Isopropoxypyridin-2-yl)-N-methyl-N-(3-methylpyridin-2-yl)-1,2,4-thiadiazol-5-amine] | 2.35 | 2.35 | 81 % remaining | 96 % remaining | 0.2 µM | 0.21 µM | 0.36 µM | 33.5 µM (≈ 11.4 µg/mL) | 0.212 µM | 0.357 µM |  |  |  | 
7 | Cc1cccnc1Nc1nc(-c2ccc(C#N)cn2)ns1 [Compound 13, 6-(5-((3-Methylpyridin-2-yl)amino)-1,2,4-thiadiazol-3-yl)nicotinonitrile] | 2.75 | 2.75 | 73 % remaining | 66 % remaining | 5.8 µM |  | 20 µM | 0.55 µM (≈ 0.162 µg/mL) |  |  |  |  |  | 
8 | Cc1cccnc1Nc1nc(-c2cc(C#N)ccn2)ns1 [Compound 14] | 2 | 2 | 78 % remaining | 65 % remaining | 3.1 µM |  | 4.5 µM | 2.55 µM (≈ 0.751 µg/mL) |  |  |  |  |  | 
9 | 3-(3-Methyl-2-pyridyl)-N-(5-pyrrolidin-1-yl-2-pyridyl)-1,2,4-thiadiazol-5-amine [Compound 21] |  |  | 61 % remaining | 86 % remaining |  |  |  | 2.17 µM |  | 0.14 µM | 2.65 | 2.65 | < 0.1 µM | 0.044 µM
10 | CC(C)c1cnc(Nc2nc(-c3ncccc3OC3CC3)ns2)cc1C(F)(F)F [Compound 38, 3-(3-Cyclopropoxypyridin-2-yl)-N-(5-isopropyl-4-(trifluoromethyl)pyridin-2-yl)-1,2,4-thiadiazol-5-amine] | 2.95 | 2.95 | 93 % remaining | 100 % remaining | 0.02 µM | 0.017 µM | < 0.02 µM | 1.03 µM (≈ 0.434 µg/mL) |  | < 0.015 µM |  |  |  | 
